pKi: −log10 of the molar value.
Target: RsbU phosphatase domain (Mycobacterium tuberculosis, UniProt P9WLZ7)
Test: biochemical

RsbU phosphatase domain, sequence (P9WLZ7 190-397): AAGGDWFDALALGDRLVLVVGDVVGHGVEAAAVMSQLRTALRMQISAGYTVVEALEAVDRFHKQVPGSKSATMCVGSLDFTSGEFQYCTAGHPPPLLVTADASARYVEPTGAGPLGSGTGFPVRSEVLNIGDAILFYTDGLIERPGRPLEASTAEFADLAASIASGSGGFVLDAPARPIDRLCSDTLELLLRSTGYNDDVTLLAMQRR

Work on O=P(O)(O)O [inorganic phosphate] yielded a pKi of 6.49.
